US11339170B1, “Spiropyrrolidine derived antiviral agents” (priority 2021, dated 2022)
pEC50, pIC50: −log10 of the molar value. Where two headings read alike, the source gives them in different places.

Key:
[1] = tested on: 229E human corona virus (hCoV); experiment: 229E live virus assay (CPE, ATPlite readout) in MRC-5 cells; assay type: cell-based, hCoV-229E; settings: Human coronavirus 229E, MRC5, 144 h, read-out: 229E EC50
SARS-CoV-2 3CL-protease = SARS-CoV-2 3CL-protease (Severe acute respiratory syndrome coronavirus 2 (2019-nCoV) (SARS-CoV-2), UniProt P0DTD1); experiment: SARS-CoV-2 3C-like (3CL) protease fluorescence assay (FRET); assay type: biochemical
[2] = recombinant SARS-CoV-2 3CL-protease 10 nM, 30 min preincubation, duplicate, read-out: FRET IC50

| Compound | pEC50 [1] | pIC50 (SARS-CoV-2 3CL-protease) | pIC50 (SARS-CoV-2 3CL-protease; [2]) | pEC50 ([1]; MRC-5 cells, MOI 0.05, 6 days at 34° C., ATPlite, duplicate) | pIC50 (SARS-CoV-2 3CL-protease; read-out: FRET IC50, recombinant SARS-CoV-2 3CL-protease 10 nM, 30 min preincubation, duplicate) |
| --- | --- | --- | --- | --- | --- |
| CN(C(=O)C(=O)Nc1ccc(F)cc1F)[C@@H](CC(C)(C)C)C(=O)N1C[C@]2(C[C@H]1C#N)C(=O)Nc1ccccc12 [Compound 20] | > 7.00 | > 7.00 | – | – | – |
| CC(C)C[C@@H](C(=O)N1C[C@]2(C[C@H]1C#N)C(=O)Nc1ccccc12)N(C)C(=O)C(=O)Nc1nn(C)c2ccccc12 [Compound 16] | > 7.00 | > 7.00 | – | – | – |
| [2H]C([2H])([2H])N(C(=O)C(=O)Nc1ccc(F)cc1)[C@@H](Cc1ccccc1)C(=O)N1C[C@]2(C[C@H]1C#N)C(=O)Nc1ccccc12 [Compound 30] | > 7.00 | > 7.00 | – | – | – |
| CC(C)C[C@@H](C(=O)N1C[C@]2(C[C@H]1C#N)C(=O)Nc1ccccc12)N(C)C(=O)C(=O)Nc1ccc(F)cc1F [Compound 2] | – | – | > 7.00 | – | – |
| [2H]C([2H])([2H])N(C(=O)C(=O)Nc1ccc(F)c(F)c1)[C@@H](CC1CC1)C(=O)N1C[C@]2(C[C@H]1C#N)C(=O)Nc1ccccc12 [Compound 38] | > 7.00 | > 7.00 | – | – | – |
| CC(C)C[C@@H](C(=O)N1C[C@]2(C[C@H]1C#N)C(=O)Nc1ccccc12)N(C)C(=O)C(=O)Nc1ccc(F)cc1 [Compound 4] | > 7.00 | > 7.00 | – | – | – |
| CC(C)C[C@@H](C(=O)N1C[C@]2(C[C@H]1C#N)C(=O)Nc1ccccc12)N(C)C(=O)C(=O)N(C)c1ccc(F)cc1 [Compound 10] | > 7.00 | > 7.00 | – | – | – |
| [2H]C([2H])([2H])N(C(=O)C(=O)Nc1ccc(F)c(F)c1)[C@@H](CCCC)C(=O)N1C[C@]2(C[C@H]1C#N)C(=O)Nc1ccccc12 [Compound 47] | > 7.00 | > 7.00 | – | – | – |
| CC(C)(C)C[C@H](NC(=O)C(=O)Nc1c(F)cccc1F)C(=O)N1C[C@]2(C[C@H]1C#N)C(=O)Nc1ccccc12 [Compound 71] | > 7.00 | > 7.00 | – | – | – |
| CN(C(=O)C(=O)Nc1ccc(F)c(F)c1)[C@@H](Cc1ccccc1)C(=O)N1C[C@]2(C[C@H]1C#N)C(=O)Nc1ccccc12 [Compound 45] | > 7.00 | > 7.00 | – | – | – |
| [2H]C([2H])([2H])N(C(=O)C(=O)C(C)(C)C)[C@@H](CCCC)C(=O)N1C[C@]2(C[C@H]1C#N)C(=O)Nc1ccccc12 [Compound 48] | > 7.00 | > 7.00 | – | – | – |
| CC(C)C[C@@H](C(=O)N1C[C@]2(C[C@H]1C#N)C(=O)Nc1ccccc12)N(C)C(=O)C(=O)Nc1ccccc1 [Compound 3] | > 7.00 | > 7.00 | – | – | – |
| CC(C)C[C@@H](C(=O)N1C[C@]2(C[C@H]1C#N)C(=O)Nc1ccccc12)N(C)C(=O)C(=O)NC1CC1 [Compound 40] | > 7.00 | > 7.00 | – | – | – |
| [2H]C([2H])([2H])N(C(=O)C(=O)NC(C)(C)C)[C@@H](CCCC)C(=O)N1C[C@]2(C[C@H]1C#N)C(=O)Nc1ccccc12 [Compound 49] | > 7.00 | > 7.00 | – | – | – |
| [2H]C([2H])([2H])N(C(=O)C(=O)N(C)c1ccccc1)[C@@H](CC(C)(C)C)C(=O)N1C[C@]2(C[C@H]1C#N)C(=O)Nc1ccccc12 [Compound 36] | 6.00 to 7.00 | < 6.00 | – | – | – |
| [2H]C([2H])([2H])N(C(=O)C(=O)Nc1cnc2ccccc2c1)[C@@H](CCCC)C(=O)N1C[C@]2(C[C@H]1C#N)C(=O)Nc1ccccc12 [Compound 50] | > 7.00 | > 7.00 | – | – | – |
| [2H]C([2H])([2H])N(C(=O)C(=O)Nc1ccccc1)[C@@H](Cc1ccccc1)C(=O)N1C[C@]2(C[C@H]1C#N)C(=O)Nc1ccccc12 [Compound 32] | > 7.00 | > 7.00 | – | – | – |
| CC(C)C[C@@H](C(=O)N1C[C@]2(C[C@H]1C#N)C(=O)Nc1ccccc12)N(C)C(=O)C(=O)NC(C)(C)C [Compound 44] | > 7.00 | > 7.00 | – | – | – |
| CC(C)C[C@@H](C(=O)N1C[C@]2(C[C@H]1C#N)C(=O)Nc1ccccc12)N(C)C(=O)C(=O)Nc1nc2ccccc2s1 [Compound 17] | > 7.00 | > 7.00 | – | – | – |

| Compound | pEC50 [1] | pIC50 (SARS-CoV-2 3CL-protease) | pIC50 (SARS-CoV-2 3CL-protease; [2]) | pEC50 ([1]; MRC-5 cells, MOI 0.05, 6 days at 34° C., ATPlite, duplicate) | pIC50 (SARS-CoV-2 3CL-protease; read-out: FRET IC50, recombinant SARS-CoV-2 3CL-protease 10 nM, 30 min preincubation, duplicate) |
| --- | --- | --- | --- | --- | --- |
| [2H]C([2H])([2H])N(C(=O)C(=O)NC1CCCCC1)[C@@H](CC(C)(C)C)C(=O)N1C[C@]2(C[C@H]1C#N)C(=O)Nc1ccccc12 [Compound 26] | > 7.00 | > 7.00 | – | – | – |
| [2H]C([2H])([2H])N(C(=O)C(=O)Nc1ccccn1)[C@@H](Cc1ccccc1)C(=O)N1C[C@]2(C[C@H]1C#N)C(=O)Nc1ccccc12 [Compound 33] | > 7.00 | > 7.00 | – | – | – |
| CC(C)C[C@@H](C(=O)N1C[C@]2(C[C@H]1C#N)C(=O)Nc1ccccc12)N(C)C(=O)C(=O)Nc1n[nH]c2ccccc12 [Compound 19] | – | – | > 7.00 | > 7.00 | – |
| CC(C)C[C@@H](C(=O)N1C[C@]2(C[C@H]1C#N)C(=O)Nc1ccccc12)N(C)C(=O)C(=O)Nc1ccc2ccccc2n1 [Compound 13] | > 7.00 | > 7.00 | – | – | – |
| CC(C)C[C@@H](C(=O)N1C[C@]2(C[C@H]1C#N)C(=O)Nc1ccccc12)N(C)C(=O)C(=O)Nc1cc(F)c(F)c(F)c1 [Compound 6] | > 7.00 | 6.00 to 7.00 | – | – | – |
| [2H]C([2H])([2H])N(C(=O)C(=O)Nc1ccccn1)[C@@H](CC(C)(C)C)C(=O)N1C[C@]2(C[C@H]1C#N)C(=O)Nc1ccccc12 [Compound 27] | > 7.00 | 6.00 to 7.00 | – | – | – |
| CC(C)C[C@@H](C(=O)N1C[C@]2(C[C@H]1C#N)C(=O)Nc1ccccc12)N(C)C(=O)C(=O)Nc1nc2ccccc2o1 [Compound 53] | 6.00 to 7.00 | < 6.00 | – | – | – |
| CC(C)C[C@@H](C(=O)N1C[C@]2(C[C@H]1C#N)C(=O)Nc1ccccc12)N(C)C(=O)C(=O)Nc1nc2ccccc2[nH]1 [Compound 52] | > 7.00 | 6.00 to 7.00 | – | – | – |
| [2H]C([2H])([2H])N(C(=O)C(=O)Nc1ccc(C(F)(F)F)cc1C(F)(F)F)[C@@H](CC1CC1)C(=O)N1C[C@]2(C[C@H]1C#N)C(=O)Nc1ccccc12 [Compound 68] | > 7.00 | > 7.00 | – | – | – |
| CC(C)C[C@@H](C(=O)N1C[C@]2(C[C@H]1C#N)C(=O)Nc1ccccc12)N(C)C(=O)C(=O)Nc1nc2ccccc2n1C [Compound 18] | > 7.00 | > 7.00 | – | – | – |
| CC(C)C[C@@H](C(=O)N1C[C@]2(C[C@H]1C#N)C(=O)Nc1ccccc12)N(C)C(=O)C(=O)Nc1ccc2cnccc2c1 [Compound 12] | > 7.00 | > 7.00 | – | – | – |
| [2H]C([2H])([2H])N(C(=O)C(=O)Nc1ccc(F)cc1)[C@@H](CC(C)(C)C)C(=O)N1C[C@]2(C[C@H]1C#N)C(=O)Nc1ccccc12 [Compound 22] | > 7.00 | > 7.00 | – | – | – |
| [2H]C([2H])([2H])N(C(=O)C(=O)Nc1ccc2ncccc2c1)[C@@H](CC(C)(C)C)C(=O)N1C[C@]2(C[C@H]1C#N)C(=O)Nc1ccccc12 [Compound 37] | > 7.00 | > 7.00 | – | – | – |
| CC(C)C[C@@H](C(=O)N1C[C@]2(C[C@H]1C#N)C(=O)Nc1ccccc12)N(C)C(=O)C(=O)Nc1ccc2ncccc2c1 [Compound 14] | > 7.00 | > 7.00 | – | – | – |
| CC(C)(C)C[C@H](NC(=O)C(=O)NC(C)(C)C)C(=O)N1C[C@]2(C[C@H]1C#N)C(=O)Nc1ccccc12 [Compound 69] | – | > 7.00 | – | – | – |
| CC(C)C[C@@H](C(=O)N1C[C@]2(C[C@H]1C#N)C(=O)Nc1ccccc12)N(C)C(=O)C(=O)c1ccc(F)cc1 [Compound 41] | > 7.00 | > 7.00 | – | – | – |
| [2H]C([2H])([2H])N(C(=O)C(=O)Nc1cnc2ccccc2c1)[C@@H](CC1CC1)C(=O)N1C[C@]2(C[C@H]1C#N)C(=O)Nc1ccccc12 [Compound 51] | > 7.00 | > 7.00 | – | – | – |
| CC(C)C[C@@H](C(=O)N1C[C@]2(C[C@H]1C#N)C(=O)Nc1ccccc12)N(C)C(=O)C(=O)Nc1ccc(F)cc1F [Compound 1] | – | – | – | – | > 7.00 |
